Laboratory results: ChEMBL document CHEMBL1158551, “Click reaction synthesis of carbohydrate derivatives from ristocetin aglycon with antibacterial and antiviral activity” (Bioorg Med Chem Lett, 2010)
Converted amounts (≈) assume the structure as drawn.

Key:
Bacillus subtilis = assay: Antibacterial activity against Bacillus subtilis ATCC 6633 by broth microdilution method; assay type: functional
Staphylococcus aureus [1] = assay: Antibacterial activity against methicillin-[…] Staphylococcus aureus ATCC 33591 by broth microdilution method; assay type: functional
Staphylococcus aureus [2] = assay: Antibacterial activity against methicillin-[…] Staphylococcus aureus ATCC 29213 by broth microdilution method; assay type: functional
[3] = test system: Staphylococcus epidermidis; assay: Antibacterial activity against biofilm positive Staphylococcus epidermidis ATCC 35984; assay type: functional
[4] = test system: Staphylococcus epidermidis; assay: Antibacterial activity against Staphylococcus epidermidis by broth microdilution method; assay type: functional
Enterococcus faecalis [5] = assay: Antibacterial activity against vancomycin and teicoplanin-sensitive Enterococcus faecalis ATCC 29212 by broth microdilution method; assay type: functional
Enterococcus faecalis [6] = assay: Antibacterial activity against vancomycin-resistant and teicoplanin-sensitive Enterococcus faecalis ATCC 5129 expressing VanB gene by broth microdilution method; assay type: functional
Enterococcus faecalis [7] = assay: Antibacterial activity against vancomycin and teicoplanin-resistant Enterococcus faecalis 15376 expressing VanA gene by broth microdilution method; assay type: functional
Influenza A virus [8] = assay: Antiviral activity against influenza A virus H1N1 assessed as inhibition of viral induced cytopathic effect; assay type: functional, organism-based
Influenza A virus [9] = assay: Antiviral activity against influenza A virus H1N1 assessed as cell viability by cell based MTS assay; assay type: functional, organism-based
Influenza A virus [10] = assay: Antiviral activity against Influenza A virus H3N2 assessed as inhibition of viral induced cytopathic effect; assay type: functional, organism-based
Influenza A virus [11] = assay: Antiviral activity against Influenza A virus H3N2 assessed as cell viability by cell based MTS assay; assay type: functional, organism-based
Influenza B virus [12] = assay: Antiviral activity against influenza B virus assessed as inhibition of viral induced cytopathic effect; assay type: functional, organism-based
Influenza B virus [13] = assay: Antiviral activity against influenza B virus assessed as cell viability by cell based MTS assay; assay type: functional, organism-based

Compound	MBC (Bacillus subtilis) [µg/mL]	MIC (Bacillus subtilis) [µg/mL]	MBC (Staphylococcus aureus [1]) [µg/mL]	MIC (Staphylococcus aureus [1]) [µg/mL]	MBC (Staphylococcus aureus [2]) [µg/mL]	MIC (Staphylococcus aureus [2]) [µg/mL]	MBC [3] [µg/mL]	MIC [3] [µg/mL]	MBC [4] [µg/mL]	MIC [4] [µg/mL]	MBC (Enterococcus faecalis [5]) [µg/mL]	MIC (Enterococcus faecalis [5]) [µg/mL]	MBC (Enterococcus faecalis [6]) [µg/mL]	MIC (Enterococcus faecalis [6]) [µg/mL]	EC50 (Influenza A virus [8]) [µM]	EC50 (Influenza A virus [9]) [µM]	EC50 (Influenza A virus [10]) [µM]	EC50 (Influenza A virus [11]) [µM]	EC50 (Influenza B virus [12]) [µM]	EC50 (Influenza B virus [13]) [µM]	further results
COC(=O)[C@H]1NC(=O)[C@H]2NC(=O)[C@H](NC(=O)[C@@H]3NC(=O)[C@H]4NC(=O)[C@H](NC(=O)[C@H](N=[N+]=[N-])c5ccc(O)c(c5)Oc5cc4cc(O)c5C)[C@H](O)c4ccc(cc4)Oc4cc3cc(c4O)Oc3ccc(cc3)[C@H]2O)c2ccc(O)c(c2)-c2c(O)cc(O)cc21 [listing 1 of 2 here]	4 (≈ 3.33 µM)	1 (≈ 0.833 µM)	2 (≈ 1.67 µM)	1 (≈ 0.833 µM)	2 (≈ 1.67 µM)	2 (≈ 1.67 µM)	64 (≈ 53.3 µM)	32 (≈ 26.7 µM)	8 (≈ 6.67 µM)	4 (≈ 3.33 µM)	16 (≈ 13.3 µM)	8 (≈ 6.67 µM)	128 (≈ 107 µM)	64 (≈ 53.3 µM)	–	–	–	–	–	–	MIC (Enterococcus faecalis [7]): > 256 µg/mL
CCOC(=O)C1=C[C@@H](OC(CC)CC)[C@H](NC(C)=O)[C@@H](N)C1 [OSELTAMIVIR]	–	–	–	–	–	–	–	–	–	–	–	–	–	–	12	11	32	38	23	27	–
COC(=O)[C@H]1NC(=O)[C@H]2NC(=O)[C@H](NC(=O)[C@@H]3NC(=O)[C@H]4NC(=O)[C@H](NC(=O)[C@H](n5cc(CO[C@@H]6O[C@@H](C)[C@H](O)[C@@H](O)[C@H]6O)nn5)c5ccc(O)c(c5)Oc5cc4cc(O)c5C)[C@H](O)c4ccc(cc4)Oc4cc3cc(c4O)Oc3ccc(cc3)[C@H]2O)c2ccc(O)c(c2)-c2c(O)cc(O)cc21	16 (≈ 11.4 µM)	16 (≈ 11.4 µM)	16 (≈ 11.4 µM)	8 (≈ 5.7 µM)	8 (≈ 5.7 µM)	8 (≈ 5.7 µM)	16 (≈ 11.4 µM)	16 (≈ 11.4 µM)	32 (≈ 22.8 µM)	16 (≈ 11.4 µM)	256 (≈ 183 µM)	32 (≈ 22.8 µM)	128 (≈ 91.3 µM)	64 (≈ 45.6 µM)	–	–	–	–	–	–	MBC (Enterococcus faecalis [7]): 256 µg/mL (≈ 183 µM); MIC (Enterococcus faecalis [7]): 16 µg/mL (≈ 11.4 µM)
NC12CC3CC(CC(C3)C1)C2 [AMANTADINE]	–	–	–	–	–	–	–	–	–	–	–	–	–	–	20	19	7	9.2	> 500	> 500	–
NC(=O)c1ncn([C@@H]2O[C@H](CO)[C@@H](O)[C@H]2O)n1 [RIBAVIRIN]	–	–	–	–	–	–	–	–	–	–	–	–	–	–	–	11	–	–	4	4.7	–
COC(=O)[C@@H]1NC(=O)[C@H]2NC(=O)[C@H](NC(=O)[C@@H]3NC(=O)[C@H]4NC(=O)[C@H](NC(=O)[C@H](n5cc(CO[C@H]6O[C@H](COC(C)=O)[C@@H](OC(C)=O)[C@H](OC(C)=O)[C@H]6OC(C)=O)nn5)c5ccc(O)c(c5)Oc5cc4cc(O)c5C)[C@H](O)c4ccc(cc4)Oc4cc3cc(c4O)Oc3ccc(cc3)[C@H]2O)c2ccc(O)c(c2)-c2c(O)cc(O)cc21	16 (≈ 10.1 µM)	8 (≈ 5.04 µM)	8 (≈ 5.04 µM)	4 (≈ 2.52 µM)	8 (≈ 5.04 µM)	4 (≈ 2.52 µM)	16 (≈ 10.1 µM)	8 (≈ 5.04 µM)	16 (≈ 10.1 µM)	16 (≈ 10.1 µM)	256 (≈ 161 µM)	8 (≈ 5.04 µM)	256 (≈ 161 µM)	16 (≈ 10.1 µM)	9.5	8.2	> 100	> 100	> 100	> 100	MBC (Enterococcus faecalis [7]): 256 µg/mL (≈ 161 µM); MIC (Enterococcus faecalis [7]): 8 µg/mL (≈ 5.04 µM)
Cc1c(O)cc2cc1Oc1cc(ccc1O)[C@@H](N)C(=O)N[C@H]1C(=O)N[C@@H]2C(=O)N[C@H]2C(=O)N[C@H]3C(=O)N[C@H](C(=O)N[C@@H](C(=O)O)c4cc(O)cc(O[C@H]5O[C@H](CO)[C@@H](O)[C@H](O)[C@@H]5O)c4-c4cc3ccc4O)[C@H](O[C@H]3C[C@@H](N)[C@@H](O)[C@H](C)O3)c3ccc(cc3)Oc3cc2cc(c3O[C@H]2O[C@@H](CO[C@H]3O[C@H](C)[C@@H](O)[C@H](O)[C@@H]3O)[C@H](O)[C@@H](O)[C@@H]2O[C@H]2O[C@H](CO)[C@@H](O)[C@H](O)[C@@H]2O[C@H]2O[C@H](CO)[C@@H](O)[C@@H]2O)Oc2ccc(cc2)[C@H]1O [RISTOCETIN]	4 (≈ 1.95 µM)	2 (≈ 0.974 µM)	64 (≈ 31.2 µM)	16 (≈ 7.79 µM)	64 (≈ 31.2 µM)	16 (≈ 7.79 µM)	64 (≈ 31.2 µM)	32 (≈ 15.6 µM)	16 (≈ 7.79 µM)	16 (≈ 7.79 µM)	256 (≈ 125 µM)	4 (≈ 1.95 µM)	256 (≈ 125 µM)	128 (≈ 62.3 µM)	–	–	–	–	–	–	MBC (Enterococcus faecalis [7]): 256 µg/mL (≈ 125 µM); MIC (Enterococcus faecalis [7]): 128 µg/mL (≈ 62.3 µM)
COC(=O)[C@@H]1NC(=O)[C@H]2NC(=O)[C@H](NC(=O)[C@@H]3NC(=O)[C@H]4NC(=O)[C@H](NC(=O)[C@H](n5cc(CO[C@H]6O[C@H](COC(C)=O)[C@@H](OC(C)=O)[C@H](OC(C)=O)[C@H]6NC(C)=O)nn5)c5ccc(O)c(c5)Oc5cc4cc(O)c5C)[C@H](O)c4ccc(cc4)Oc4cc3cc(c4O)Oc3ccc(cc3)[C@H]2O)c2ccc(O)c(c2)-c2c(O)cc(O)cc21	8 (≈ 5.05 µM)	2 (≈ 1.26 µM)	64 (≈ 40.4 µM)	1 (≈ 0.631 µM)	256 (≈ 161 µM)	0.5 (≈ 0.315 µM)	8 (≈ 5.05 µM)	8 (≈ 5.05 µM)	4 (≈ 2.52 µM)	4 (≈ 2.52 µM)	256 (≈ 161 µM)	4 (≈ 2.52 µM)	256 (≈ 161 µM)	4 (≈ 2.52 µM)	8	5.8	> 100	> 100	> 100	> 100	MBC (Enterococcus faecalis [7]): 256 µg/mL (≈ 161 µM); MIC (Enterococcus faecalis [7]): 2 µg/mL (≈ 1.26 µM)
COC(=O)[C@@H]1NC(=O)[C@H]2NC(=O)[C@H](NC(=O)[C@@H]3NC(=O)[C@H]4NC(=O)[C@H](NC(=O)[C@H](n5cc(CO[C@H]6O[C@H](COC(C)=O)[C@@H](OC(C)=O)[C@H](OC(C)=O)[C@@H]6OC(C)=O)nn5)c5ccc(O)c(c5)Oc5cc4cc(O)c5C)[C@H](O)c4ccc(cc4)Oc4cc3cc(c4O)Oc3ccc(cc3)[C@H]2O)c2ccc(O)c(c2)-c2c(O)cc(O)cc21	8 (≈ 5.04 µM)	4 (≈ 2.52 µM)	4 (≈ 2.52 µM)	2 (≈ 1.26 µM)	4 (≈ 2.52 µM)	2 (≈ 1.26 µM)	4 (≈ 2.52 µM)	4 (≈ 2.52 µM)	4 (≈ 2.52 µM)	2 (≈ 1.26 µM)	128 (≈ 80.7 µM)	4 (≈ 2.52 µM)	256 (≈ 161 µM)	8 (≈ 5.04 µM)	4	5	> 100	> 100	> 100	> 100	MBC (Enterococcus faecalis [7]): 128 µg/mL (≈ 80.7 µM); MIC (Enterococcus faecalis [7]): 2 µg/mL (≈ 1.26 µM)
COC(=O)[C@H]1NC(=O)[C@H]2NC(=O)[C@H](NC(=O)[C@@H]3NC(=O)[C@H]4NC(=O)[C@H](NC(=O)[C@H](N=[N+]=[N-])c5ccc(O)c(c5)Oc5cc4cc(O)c5C)[C@H](O)c4ccc(cc4)Oc4cc3cc(c4O)Oc3ccc(cc3)[C@H]2O)c2ccc(O)c(c2)-c2c(O)cc(O)cc21 [listing 2 of 2 here]	–	–	–	–	–	–	–	–	–	–	–	–	–	–	9.5	–	≥ 20	≥ 9	> 100	> 100	–
CC(N)C12CC3CC(CC(C3)C1)C2 (centres undefined) [RIMANTADINE]	–	–	–	–	–	–	–	–	–	–	–	–	–	–	224	283	4	5.6	> 500	> 500	–
